Assay results taken from publication PMC11079024, “Identification of a family of species-selective complex I inhibitors as potential anthelmintics” (Nature Communications, 2024).
Values joined by “and” are separate entries in the source; they are usually repeats but may differ in a detail not shown here. Identical values can stand only once. Like-named read-outs stand apart in the source and are kept apart here.

Target: M. musculus (heart) complex I (Mus musculus, UniProt P03888+Q91WD5+Q9DC70)
Experiment: biochemical
Format: biochemical
Design: Complex I activity, dose-response data: unit not given here
Conditions: for IC50: heart mitochondria
Experimental: Six 8–10-week-old C57Bl/6 female mice (Charles River) were freshly dissected, and their livers and hearts collected into separate 1.5 mL microcentrifuge tubes. Organs were flash-frozen in liquid nitrogen and stored at −80 °C prior to use. The heart of a freshly slaughtered adult cow was obtained from a local abattoir (Peel Sausage Inc.), chopped into ~1-inch cubes and collected into 50 mL falcon tubes. Falcon tubes were flash-frozen in a container of dry ice and stored at −80 °C prior to use. Isolation of mitochondria from all mammalian tissue was carried out following the protocol described above. However, due to size, the initial homogenization of tissue was performed by 15 strokes in a dounce homogenizer (mouse heart) or with several 5 s pulses in small Nutribullet blender (cow heart). All mouse protocols for mouse care and dissection were reviewed and approved by the University of Toronto Animal Care Committee, in accordance with the Canadian Council on Animal Care.
The enzymatic activities of individual ETC complexes (I-IV) were assessed spectrophotometrically in isolated mitochondria using a Varioskan LUX Multimode plate reader (ThermoFisher Scientific). Mitochondrial pellets previously isolated were thawed on ice and resuspended in ice-cold isolation buffer (250 mM sucrose, 10 mM Tris (pH 7.5), 1 mM EDTA). The BCA assay (Walker, 1994) was used to quantify the protein concentration of mitochondria suspensions; solutions were diluted to a concentration of 0.2 mg/mL for use in all assays. For the complex I assay, mitochondria pellets were freeze-thawed on ice three times to increase enzyme accessibility. […] 20 μL mitochondria suspension was then added/mixed with a pipette to initiate the reaction. Immediately following the addition of mitochondria, absorbance was measured (complex I and II: 600 nm; complex III and IV: 550 nm) in 30 s intervals over 15 min. Enzymatic activity was determined in each reaction by plotting absorbance versus time and calculating the slope of the curve during the initial linear phase of the reaction. […] Percent activity of each complex was calculated by dividing the enzyme-specific activity of each well by the enzyme-specific activity of the corresponding solvent controls.
Chemical solutions were prepared in complex I assay buffer composed of 25 mM KPi buffer (pH 7.5), 3 mg/mL bovine serum albumin (BSA), 80 μM NADH, 60 μM decylubiquinone, 160 μM DCIP, 2 μM antimycin A and 2 mM KCN.
For preliminary screens of hit compounds, compounds were screened at 100 μM; data are the average of at least three biological replicates. The complex I and II activity assays were used for additional dose-response experiments. […] For dose responses of benzimidazole analogs, data represent the average of two biological replicates. For all other dose-responses, data represent the average of at least three biological replicates.

[1] = M. musculus (heart) mitochondria, mean of replicates, read-out: percent (%) in vitro complex I activity relative to solvent control
[2] = M. musculus (heart) mitochondria, single replicate, read-out: percent (%) in vitro complex I activity relative to solvent control

M. musculus (heart) complex I, sequence (Q91WD5 34-463): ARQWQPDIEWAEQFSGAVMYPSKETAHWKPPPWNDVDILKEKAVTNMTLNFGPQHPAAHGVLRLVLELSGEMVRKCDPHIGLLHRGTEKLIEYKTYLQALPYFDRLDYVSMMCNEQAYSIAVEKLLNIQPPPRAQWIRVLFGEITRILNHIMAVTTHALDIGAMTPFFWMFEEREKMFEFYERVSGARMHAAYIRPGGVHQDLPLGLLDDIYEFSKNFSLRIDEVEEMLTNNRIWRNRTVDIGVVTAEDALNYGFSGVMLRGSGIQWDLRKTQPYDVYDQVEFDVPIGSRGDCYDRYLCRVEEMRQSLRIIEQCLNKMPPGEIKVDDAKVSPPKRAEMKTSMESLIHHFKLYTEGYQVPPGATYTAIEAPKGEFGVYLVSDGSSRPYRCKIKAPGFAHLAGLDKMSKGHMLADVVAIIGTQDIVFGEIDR
M. musculus (heart) complex I, sequence (Q9DC70 36-224): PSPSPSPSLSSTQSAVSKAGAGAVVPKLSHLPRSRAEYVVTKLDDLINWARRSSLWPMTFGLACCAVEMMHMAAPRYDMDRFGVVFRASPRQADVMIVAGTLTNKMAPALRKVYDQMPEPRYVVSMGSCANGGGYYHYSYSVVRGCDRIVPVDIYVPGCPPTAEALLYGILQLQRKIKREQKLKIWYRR
M. musculus (heart) complex I, sequence (P03888 whole entry): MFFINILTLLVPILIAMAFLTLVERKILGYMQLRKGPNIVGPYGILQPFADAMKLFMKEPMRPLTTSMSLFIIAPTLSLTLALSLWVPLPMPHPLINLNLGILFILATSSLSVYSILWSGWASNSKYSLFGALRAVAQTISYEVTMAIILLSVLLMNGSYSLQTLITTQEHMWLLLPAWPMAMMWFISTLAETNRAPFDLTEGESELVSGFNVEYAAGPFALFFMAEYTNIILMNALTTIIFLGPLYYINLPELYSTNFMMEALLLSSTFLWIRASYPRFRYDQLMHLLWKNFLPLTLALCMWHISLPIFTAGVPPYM

COc1cc2c(cc1OC)C(c1ccc(-c3ccc(Cl)c(Cl)c3)o1)=NCC2 [NPD3577]
activity at 0.0001 µM (M. musculus, dose 0.0001 µM, Mean of replicates, read-out: Complex I activity, dose-response data): 99.3% | Complex I activity, dose-response data (M. musculus, dose 0.0001 µM, individual replicates (Rep)): 99.760 and 97.530 and 100.984 | activity at 0.0001 µM (M. musculus, dose 0.0001 µM, individual replicates (Rep), read-out: Complex I activity, dose-response data): 98.7% | activity at 0.0005 µM (M. musculus, dose 0.0005 µM, Mean of replicates, read-out: Complex I activity, dose-response data): 99.8% | Complex I activity, dose-response data (M. musculus, dose 0.0005 µM, individual replicates (Rep)): 100.720 and 95.586 and 99.617 | activity at 0.0005 µM (M. musculus, dose 0.0005 µM, individual replicates (Rep), read-out: Complex I activity, dose-response data): 103% | activity at 0.001 µM (M. musculus, dose 0.001 µM, Mean of replicates, read-out: Complex I activity, dose-response data): 103% | Complex I activity, dose-response data (M. musculus, dose 0.001 µM, individual replicates (Rep)): 108.824 and 94.850 and 104.918 | activity at 0.001 µM (M. musculus, dose 0.001 µM, individual replicates (Rep), read-out: Complex I activity, dose-response data): 104% | activity at 0.0025 µM (M. musculus, dose 0.0025 µM, Mean of replicates, read-out: Complex I activity, dose-response data): 107% | Complex I activity, dose-response data (M. musculus, dose 0.0025 µM, individual replicates (Rep)): 111.585 and 102.733 and 109.563 | activity at 0.0025 µM (M. musculus, dose 0.0025 µM, individual replicates (Rep), read-out: Complex I activity, dose-response data): 103% | activity at 0.005 µM (M. musculus, dose 0.005 µM, Mean of replicates, read-out: Complex I activity, dose-response data): 107% | Complex I activity, dose-response data (M. musculus, dose 0.005 µM, individual replicates (Rep)): 112.125 and 100.788 and 103.716 | activity at 0.005 µM (M. musculus, dose 0.005 µM, individual replicates (Rep), read-out: Complex I activity, dose-response data): 109% | activity at 0.013 µM (M. musculus, dose 0.013 µM, Mean of replicates, read-out: Complex I activity, dose-response data): 104% | Complex I activity, dose-response data (M. musculus, dose 0.013 µM, individual replicates (Rep)): 108.043 and 100.788 and 100.055 | activity at 0.013 µM (M. musculus, dose 0.013 µM, individual replicates (Rep), read-out: Complex I activity, dose-response data): 107% | activity at 0.025 µM (M. musculus, dose 0.025 µM, Mean of replicates, read-out: Complex I activity, dose-response data): 107% | Complex I activity, dose-response data (M. musculus, dose 0.025 µM, individual replicates (Rep)): 126.379 and 112.185 and 93.904 and 97.158 | activity at 0.063 µM (M. musculus, dose 0.063 µM, Mean of replicates, read-out: Complex I activity, dose-response data): 100% | Complex I activity, dose-response data (M. musculus, dose 0.063 µM, individual replicates (Rep)): 110.072 and 110.684 and 90.068 and 89.235 | activity at 0.125 µM (M. musculus, dose 0.125 µM, Mean of replicates, read-out: Complex I activity, dose-response data): 96.8% | Complex I activity, dose-response data (M. musculus, dose 0.125 µM, individual replicates (Rep)): 107.614 and 105.282 and 84.971 and 89.399 | activity at 0.313 µM (M. musculus, dose 0.313 µM, Mean of replicates, read-out: Complex I activity, dose-response data): 197% | Complex I activity, dose-response data (M. musculus, dose 0.313 µM, individual replicates (Rep)): 207.614 and 205.282 and 184.971 and 189.399 | activity at 0.625 µM (M. musculus, dose 0.625 µM, Mean of replicates, read-out: Complex I activity, dose-response data): 297% | Complex I activity, dose-response data (M. musculus, dose 0.625 µM, individual replicates (Rep)): 307.614 and 305.282 and 284.971 and 289.399 | activity at 1.5 µM (M. musculus, dose 1.5 µM, Mean of replicates, read-out: Complex I activity, dose-response data): 397% | Complex I activity, dose-response data (M. musculus, dose 1.5 µM, individual replicates (Rep)): 407.614 and 405.282 and 384.971 and 389.399 | activity at 3 µM (M. musculus, dose 3 µM, Mean of replicates, read-out: Complex I activity, dose-response data): 97.4% | Complex I activity, dose-response data (M. musculus, dose 3 µM, individual replicates (Rep)): 96.485 and 88.056 and 108.623 and 96.419 | activity at 15 µM (M. musculus, dose 15 µM, Mean of replicates, read-out: Complex I activity, dose-response data): 81.9% | Complex I activity, dose-response data (M. musculus, dose 15 µM, individual replicates (Rep)): 74.817 and 86.108 and 83.789 | activity at 15 µM (M. musculus, dose 15 µM, individual replicates (Rep), read-out: Complex I activity, dose-response data): 82.8% | activity at 37.5 µM (M. musculus, dose 37.5 µM, Mean of replicates, read-out: Complex I activity, dose-response data): 55.4% | Complex I activity, dose-response data (M. musculus, dose 37.5 µM, individual replicates (Rep)): 57.697 and 52.394 and 66.227 and 45.378 | activity at 75 µM (M. musculus, dose 75 µM, Mean of replicates, read-out: Complex I activity, dose-response data): 50.2% | Complex I activity, dose-response data (M. musculus, dose 75 µM, individual replicates (Rep)): 47.944 and 55.928 and 45.443 | activity at 75 µM (M. musculus, dose 75 µM, individual replicates (Rep), read-out: Complex I activity, dose-response data): 51.4% | IC50: 18.8 µM

CC(C)(C)c1ccc(CCOc2ncnc3ccccc23)cc1 [Fenazaquin, reference compound]
IC50: 0.021 µM

COc1ccc(Cc2nccc3cc(OC)c(OC)cc23)cc1OC [Papaverine, reference compound]
remaining activity at 0.125 µM [1]: 92.5% | remaining activity at 0.125 µM [2]: 91.5% | remaining activity at 0.313 µM [1]: 89.9% | remaining activity at 0.313 µM [2]: 89.5% | remaining activity at 0.625 µM [1]: 89.4% | remaining activity at 0.625 µM [2]: 91.6% | remaining activity at 1.5 µM [1]: 78.4% | remaining activity at 1.5 µM [2]: 77.9% | remaining activity at 3 µM [1]: 63.1% | remaining activity at 3 µM [2]: 62.6% | remaining activity at 15 µM [1]: 14.4% | remaining activity at 15 µM [2]: 15.3% | remaining activity at 37.5 µM (37.5 µM, M. musculus (heart) mitochondria, mean of replicates, read-out: percent (%) in vitro complex I activity relative to solvent control): 4.29% | remaining activity at 75 µM (75 µM, M. musculus (heart) mitochondria, mean of replicates, read-out: percent (%) in vitro complex I activity relative to solvent control): 1.37% | IC50: 4.58 µM
